For orientation: IC50 means the midpoint of a concentration-inhibition curve.

The values that follow come from ChEMBL document CHEMBL3414502, “Identification of protein kinase CK2 inhibitors using solvent dipole ordering virtual screening” (Eur J Med Chem, 2015).

In test [1] the target is Casein kinase II (Homo sapiens) (UniProt P67870+P68400+P19784). The test can be described thus: Competitive inhibition of CK2 kinase (unknown origin) by Lineweaver-Burk plot analysis in presence of ATP. Type of test: protein-complex assay.
For test [2], the target named is Casein kinase II (Homo sapiens, UniProt P19784+P67870+P68400). Put plainly: Inhibition of CK2 kinase (unknown origin) using RRRDDDSDDD as substrate after 10 mins by topcount analysis in presence of [gamma-32P]ATP and 90 uM ATP. In kind it is protein-complex assay.

Each structure is given as a SMILES string. Active and inactive are the calls of the source. The calls are words filed in the database; no cut-off is given here.

`Cc1nn(C)cc1-c1cc(-c2nnc(Nc3ccn(Cc4ccccc4Cl)n3)s2)no1`: the “competitive inhibition (qualitative)” value in test [1] is “Active”. For the same molecule, in test [2], the IC50 turned out to be 3.7 µM.
`Cc1cc(Br)c(N2C(=O)NC(=O)C(/C=N/c3ccc(C(=O)O)c(O)c3)C2=O)cc1C` (stereo unspecified): the IC50 in test [2] is 28.6 µM.
For `COc1ccc(-c2nc3c(sc4nc(C(F)F)cc(C)c43)c(=O)[nH]2)cc1Cn1cc([N+](=O)[O-])cn1`, in test [1], the “competitive inhibition (qualitative)” value is “Active”. The IC50 in test [2] amounted to 7.7 µM.
For `COc1cc(/C=C2/C(=O)NN(c3ccc(C)c(Cl)c3)C2=O)ccc1OCC(=O)O`, the IC50 in test [2] amounted to 28.9 µM.
With `CCC(=O)Nc1nnc(-c2ccc([N+](=O)[O-])cc2)s1`, the IC50 in test [2] amounted to 27.9 µM.
Consider `O=c1cc(-c2ccc(O)cc2)oc2c1ccc1ccccc12`, for which, in test [1], the “competitive inhibition (qualitative)” value is “Active”. Also, the IC50 in test [2] amounted to 9.7 µM.
With `O=C1OC(c2ccc(-c3ccccc3)cc2)=N/C1=C/c1ccc(C(=O)O)cc1`, in test [2], the IC50 is 13.9 µM.
Consider `COc1cccc(NC(=O)Nc2nnc(-c3ccc([N+](=O)[O-])cc3)s2)c1`, for which the “competitive inhibition (qualitative)” value in test [1] was “Active”. Further, the 50% inhibitory concentration (IC50) in test [2] amounted to 7.6 µM.
As for `O=C1OC(c2sc3ccccc3c2Cl)=N/C1=C/c1ccc(C(=O)O)cc1`, the IC50 in test [2] was 6 µM.
Still for that read-out and setting: with `CCOc1ccc(C2=N/C(=C/c3ccc(C(=O)O)cc3)C(=O)O2)cc1` the figure was 43 µM.
In the case of `COc1ccc(/C=C2\Oc3cc(OCC(=O)O)ccc3C2=O)cc1OC`, the “competitive inhibition (qualitative)” value in test [1] was “Active”. Further, the IC50 in test [2] stood at 6 µM.
With `Nc1nc2ccc(NC(=S)NC(=O)c3cccs3)cc2s1`, the IC50 in test [2] is 25.1 µM.
For the molecule `O=c1[nH]n2c(=O)c3c([nH]c2c1/N=N/c1ccccc1Cl)CCC3`, the “competitive inhibition (qualitative)” value in test [1] was “Active”. In test [2], the IC50 was 3.8 µM.
In the case of `O=c1[nH]nc(-c2ccco2)c2cn(-c3cccc([N+](=O)[O-])c3)nc12`, the IC50 in test [2] worked out at 46.3 µM.
Still for that read-out and setting: the value for `NC(=O)c1nc(-c2ccncc2)nc2c1[nH]c(=O)n2-c1ccc2c(c1)OCO2` was 19.6 µM.
As to `CCOc1cc(-c2nc3c(cnn3-c3ccccc3)c(=O)[nH]2)ccc1O`, in test [2], the IC50 was 39.9 µM.
As to `O=C(COC(=O)c1cc(Br)c(Br)s1)Nc1ccc2[nH]c(=O)[nH]c2c1`, the IC50 in test [2] was determined as 15.2 µM.
Turning to `O=C(COC(=O)c1c[nH]c2ccccc12)Nc1ccc2[nH]c(=O)[nH]c2c1`, in test [2], the IC50 came out at 28.5 µM.
On the same count and under the same terms, the value for `Nc1nnc(-c2ccc(C(=O)O)cc2)s1` was 27.4 µM.
On the same count and under the same terms, with `O=c1[nH]c(-c2ccc(OCc3ccccc3)cc2)nc2c1cnn2-c1ccccc1` the figure was 11.1 µM; with `O=C(O)COc1ccc2c(c1)O/C(=C\c1ccco1)C2=O`, 11 µM.
As to `O=c1oc2ccc([N+](=O)[O-])cc2cc1-c1csc(Nc2ccccc2)n1`, the “competitive inhibition (qualitative)” value in test [1] is “Active”. Also, the IC50 in test [2] was determined as 8.6 µM.
As to `CC(C)(C)c1ccc(C2=N/C(=C/c3ccc(C(=O)O)cc3)C(=O)O2)cc1`, in test [2], the IC50 amounted to 13.2 µM.
As to `COc1ccc(-c2nc(C(N)=O)c3[nH]c(=O)n(-c4ccc(OC)c(OC)c4)c3n2)cc1`, the IC50 in test [2] turned out to be 50 µM.
